Values belong to the molecule of their own block, whether it stands above or below them.
System: 317291-083-R-J1-PDC complex spheroid growth
Test: Anticancer human tumor 317291-083-R-J1-PDC patient-derived soft tissue sarcoma cell line growth inhibition [Asc]
Conditions: for IC50: curve of first compound; for viability, T/C: stronger effect = lower value
Outline: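 Complex spheroids combining tumor cells with HUVEC endothelial cells and human MSCs, at 37 degrees C, 5% CO2; agents tested alone or combined, half-log dilutions from at or near clinical Cmax, or 10 microM if Cmax unknown.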

[1] = second compound 0.0316 µM, first compound 0.0316 µM
[2] = second compound 0.0316 µM, first compound 0.1 µM
[3] = second compound 0.0316 µM, first compound 0.316 µM
[4] = second compound 0.0316 µM, first compound 1 µM
[5] = second compound 0.1 µM, first compound 0.0316 µM
[6] = second compound 0.1 µM, first compound 0.1 µM
[7] = second compound 0.1 µM, first compound 0.316 µM
[8] = second compound 0.1 µM, first compound 1 µM
[9] = second compound 0.316 µM, first compound 0.0316 µM
[10] = second compound 0.316 µM, first compound 0.1 µM
[11] = second compound 0.316 µM, first compound 0.316 µM
[12] = second compound 0.316 µM, first compound 1 µM
[13] = second compound 1 µM, first compound 0.0316 µM
[14] = second compound 1 µM, first compound 0.1 µM
[15] = second compound 1 µM, first compound 0.316 µM
[16] = second compound 1 µM, first compound 1 µM
[17] = second compound 3.16 µM, first compound 0.0316 µM
[18] = second compound 3.16 µM, first compound 0.1 µM
[19] = second compound 3.16 µM, first compound 0.316 µM
[20] = second compound 3.16 µM, first compound 1 µM
[21] = second compound 10 µM, first compound 0.0316 µM
[22] = second compound 10 µM, first compound 0.1 µM
[23] = second compound 10 µM, first compound 0.316 µM
[24] = second compound 10 µM, first compound 1 µM
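Note: compound exposure lasted seven days after spheroids formed for three days.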
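Throughout, for viability, T/C: 100% = DMSO vehicle control wells.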

- IC50 (second compound 0.0316 µM): 1920 nM
- IC50 (second compound 0.1 µM): 1970 nM
- IC50 (second compound 0.316 µM): 1720 nM
- IC50 (second compound 1 µM): 1620 nM
- IC50 (second compound 3.16 µM): 1170 nM
- IC50 (second compound 10 µM): 1590 nM
Compound: C=C(F)C(=O)N1CCN(c2nc(OCC3CCCN3C)nc3c2CCN(c2cccc4cccc(Cl)c24)C3)CC1CC#N (stereo unspecified) + Cc1c(S(C)(=O)=O)c(-c2cc(F)cc(N3CCN(c4ccc(NS(=O)(=O)c5ccc(NC(CCN6CCC(C(=O)OCCCP(=O)(O)O)CC6)CSc6ccccc6)c(S(=O)(=O)C(F)(F)F)c5)cc4)CC3)c2)c(-c2ccc(Cl)cc2)n1C(C)C
- viability, T/C [1]: 105%
- viability, T/C [2]: 105%
- viability, T/C [3]: 85.2%
- viability, T/C [4]: 83.2%
- viability, T/C (second compound 0.0316 µM, first compound 3.16 µM): 25.8%
- viability, T/C (second compound 0.0316 µM, first compound 10 µM): 0.54%
- viability, T/C [5]: 113%
- viability, T/C [6]: 97%
- viability, T/C [7]: 86.2%
- viability, T/C [8]: 96.7%
- viability, T/C (second compound 0.1 µM, first compound 3.16 µM): 17.6%
- viability, T/C (second compound 0.1 µM, first compound 10 µM): 0.18%
- viability, T/C [9]: 80.8%
- viability, T/C [10]: 90%
- viability, T/C [11]: 77.5%
- viability, T/C [12]: 87.1%
- viability, T/C (second compound 0.316 µM, first compound 3.16 µM): 11.7%
- viability, T/C (second compound 0.316 µM, first compound 10 µM): 0.14%
- viability, T/C [13]: 87.5%
- viability, T/C [14]: 72.9%
- viability, T/C [15]: 76.8%
- viability, T/C [16]: 76.3%
- viability, T/C (second compound 1 µM, first compound 3.16 µM): 13.7%
- viability, T/C (second compound 1 µM, first compound 10 µM): 2.51%
- viability, T/C [17]: 100%
- viability, T/C [18]: 69.9%
- viability, T/C [19]: 74.5%
- viability, T/C [20]: 58.6%
- viability, T/C (second compound 3.16 µM, first compound 3.16 µM): 7.37%
- viability, T/C (second compound 3.16 µM, first compound 10 µM): 0.24%
- viability, T/C [21]: 96.5%
- viability, T/C [22]: 99.1%
- viability, T/C [23]: 96.7%
- viability, T/C [24]: 77.9%
- viability, T/C (second compound 10 µM, first compound 3.16 µM): 8.59%
- viability, T/C (second compound 10 µM, first compound 10 µM): 0.29%

- IC50 (second compound 0.0316 µM): > 3000 nM
- IC50 (second compound 0.1 µM): > 3000 nM
- IC50 (second compound 0.316 µM): > 3000 nM
- IC50 (second compound 1 µM): > 3000 nM
- IC50 (second compound 3.16 µM): > 3000 nM
- IC50 (second compound 10 µM): > 3000 nM
Compound: CCN1C(C(=O)NC23CCC(C(=O)O)(CC2)CC3)C(c2cccc(Cl)c2F)C2(C(=O)Nc3cc(Cl)ccc32)C12CCCCC2 (stereo unspecified) + Cc1c(S(C)(=O)=O)c(-c2cc(F)cc(N3CCN(c4ccc(NS(=O)(=O)c5ccc(NC(CCN6CCC(C(=O)OCCCP(=O)(O)O)CC6)CSc6ccccc6)c(S(=O)(=O)C(F)(F)F)c5)cc4)CC3)c2)c(-c2ccc(Cl)cc2)n1C(C)C
- viability, T/C (second compound 0.0316 µM, first compound 0.00949 µM): 108%
- viability, T/C (second compound 0.0316 µM, first compound 0.03 µM): 122%
- viability, T/C (second compound 0.0316 µM, first compound 0.0949 µM): 99.7%
- viability, T/C (second compound 0.0316 µM, first compound 0.3 µM): 95.1%
- viability, T/C (second compound 0.0316 µM, first compound 0.949 µM): 83.6%
- viability, T/C (second compound 0.0316 µM, first compound 3 µM): 80.5%
- viability, T/C (second compound 0.1 µM, first compound 0.00949 µM): 110%
- viability, T/C (second compound 0.1 µM, first compound 0.03 µM): 90.2%
- viability, T/C (second compound 0.1 µM, first compound 0.0949 µM): 89.5%
- viability, T/C (second compound 0.1 µM, first compound 0.3 µM): 98.2%
- viability, T/C (second compound 0.1 µM, first compound 0.949 µM): 108%
- viability, T/C (second compound 0.1 µM, first compound 3 µM): 73.4%
- viability, T/C (second compound 0.316 µM, first compound 0.00949 µM): 80.9%
- viability, T/C (second compound 0.316 µM, first compound 0.03 µM): 90.8%
- viability, T/C (second compound 0.316 µM, first compound 0.0949 µM): 90.3%
- viability, T/C (second compound 0.316 µM, first compound 0.3 µM): 98.4%
- viability, T/C (second compound 0.316 µM, first compound 0.949 µM): 91.5%
- viability, T/C (second compound 0.316 µM, first compound 3 µM): 67.6%
- viability, T/C (second compound 1 µM, first compound 0.00949 µM): 92.2%
- viability, T/C (second compound 1 µM, first compound 0.03 µM): 90.3%
- viability, T/C (second compound 1 µM, first compound 0.0949 µM): 68.9%
- viability, T/C (second compound 1 µM, first compound 0.3 µM): 90.2%
- viability, T/C (second compound 1 µM, first compound 0.949 µM): 89.7%
- viability, T/C (second compound 1 µM, first compound 3 µM): 58%
- viability, T/C (second compound 3.16 µM, first compound 0.00949 µM): 83.9%
- viability, T/C (second compound 3.16 µM, first compound 0.03 µM): 84.1%
- viability, T/C (second compound 3.16 µM, first compound 0.0949 µM): 68.6%
- viability, T/C (second compound 3.16 µM, first compound 0.3 µM): 82.1%
- viability, T/C (second compound 3.16 µM, first compound 0.949 µM): 85.9%
- viability, T/C (second compound 3.16 µM, first compound 3 µM): 63.1%
- viability, T/C (second compound 10 µM, first compound 0.00949 µM): 99.3%
- viability, T/C (second compound 10 µM, first compound 0.03 µM): 102%
- viability, T/C (second compound 10 µM, first compound 0.0949 µM): 90.8%
- viability, T/C (second compound 10 µM, first compound 0.3 µM): 85.4%
- viability, T/C (second compound 10 µM, first compound 0.949 µM): 94.8%
- viability, T/C (second compound 10 µM, first compound 3 µM): 75.8%

- IC50 (second compound 0.0316 µM): 197 nM
- IC50 (second compound 0.1 µM): 138 nM
- IC50 (second compound 0.316 µM): 176 nM
- IC50 (second compound 1 µM): 61.4 nM
- IC50 (second compound 3.16 µM): 84.1 nM
- IC50 (second compound 10 µM): 149 nM
Compound: CNC(C)C(=O)NC1CN(S(=O)(=O)c2cccc(S(=O)(=O)N3CCC4CCC(C(=O)NC(c5ccccc5)c5ccccc5)N4C(=O)C(NC(=O)C(C)NC)C3)c2)CCC2CCC(C(=O)NC(c3ccccc3)c3ccccc3)N2C1=O (stereo unspecified) + Cc1c(S(C)(=O)=O)c(-c2cc(F)cc(N3CCN(c4ccc(NS(=O)(=O)c5ccc(NC(CCN6CCC(C(=O)OCCCP(=O)(O)O)CC6)CSc6ccccc6)c(S(=O)(=O)C(F)(F)F)c5)cc4)CC3)c2)c(-c2ccc(Cl)cc2)n1C(C)C
- viability, T/C (second compound 0.0316 µM, first compound 0.00316 µM): 121%
- viability, T/C (second compound 0.0316 µM, first compound 0.01 µM): 65.5%
- viability, T/C [1]: 82.7%
- viability, T/C [2]: 55.4%
- viability, T/C [3]: 53.3%
- viability, T/C [4]: 32.9%
- viability, T/C (second compound 0.1 µM, first compound 0.00316 µM): 88.3%
- viability, T/C (second compound 0.1 µM, first compound 0.01 µM): 80.2%
- viability, T/C [5]: 60.4%
- viability, T/C [6]: 62.2%
- viability, T/C [7]: 35.1%
- viability, T/C [8]: 25.1%
- viability, T/C (second compound 0.316 µM, first compound 0.00316 µM): 82.7%
- viability, T/C (second compound 0.316 µM, first compound 0.01 µM): 67.4%
- viability, T/C [9]: 74.5%
- viability, T/C [10]: 60.5%
- viability, T/C [11]: 38.8%
- viability, T/C [12]: 23.8%
- viability, T/C (second compound 1 µM, first compound 0.00316 µM): 70.7%
- viability, T/C (second compound 1 µM, first compound 0.01 µM): 61.4%
- viability, T/C [13]: 55%
- viability, T/C [14]: 44.5%
- viability, T/C [15]: 41.3%
- viability, T/C [16]: 25.3%
- viability, T/C (second compound 3.16 µM, first compound 0.00316 µM): 81%
- viability, T/C (second compound 3.16 µM, first compound 0.01 µM): 53.1%
- viability, T/C [17]: 65.1%
- viability, T/C [18]: 50.9%
- viability, T/C [19]: 36.6%
- viability, T/C [20]: 22.1%
- viability, T/C (second compound 10 µM, first compound 0.00316 µM): 77.5%
- viability, T/C (second compound 10 µM, first compound 0.01 µM): 78.6%
- viability, T/C [21]: 67.1%
- viability, T/C [22]: 60%
- viability, T/C [23]: 34.9%
- viability, T/C [24]: 24.8%

From PubChem BioAssay AID1963427 (Molecular Pharmacology Branch, DTP, NCI, 2024)
